# Source: patent US20120264735A1 (priority 2009, published 2012)
# Molecular target: T1, c-Met kinase (recombinant c-Met) (Homo sapiens, UniProt P08581)
# T1 construct: 0.27 nM recombinant c-Met
# Test: In vitro kinase assay I (homogeneous time-resolved fluorescence tyrosine kinase assay)
# Format: biochemical
# Summary of the method: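 Biotinylated peptide (0.5 μM) phosphorylated by 0.2 nM recombinant c-Met with 50 μM MgATP, 60 min at room temperature, pH 7.4, 5% DMSO. EDTA stop; HTRF read with Eu-anti-phosphotyrosine antibody and streptavidin-APC. IC50 from 4-parameter logistic fit.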
# T1 sequence (P08581 25-1390): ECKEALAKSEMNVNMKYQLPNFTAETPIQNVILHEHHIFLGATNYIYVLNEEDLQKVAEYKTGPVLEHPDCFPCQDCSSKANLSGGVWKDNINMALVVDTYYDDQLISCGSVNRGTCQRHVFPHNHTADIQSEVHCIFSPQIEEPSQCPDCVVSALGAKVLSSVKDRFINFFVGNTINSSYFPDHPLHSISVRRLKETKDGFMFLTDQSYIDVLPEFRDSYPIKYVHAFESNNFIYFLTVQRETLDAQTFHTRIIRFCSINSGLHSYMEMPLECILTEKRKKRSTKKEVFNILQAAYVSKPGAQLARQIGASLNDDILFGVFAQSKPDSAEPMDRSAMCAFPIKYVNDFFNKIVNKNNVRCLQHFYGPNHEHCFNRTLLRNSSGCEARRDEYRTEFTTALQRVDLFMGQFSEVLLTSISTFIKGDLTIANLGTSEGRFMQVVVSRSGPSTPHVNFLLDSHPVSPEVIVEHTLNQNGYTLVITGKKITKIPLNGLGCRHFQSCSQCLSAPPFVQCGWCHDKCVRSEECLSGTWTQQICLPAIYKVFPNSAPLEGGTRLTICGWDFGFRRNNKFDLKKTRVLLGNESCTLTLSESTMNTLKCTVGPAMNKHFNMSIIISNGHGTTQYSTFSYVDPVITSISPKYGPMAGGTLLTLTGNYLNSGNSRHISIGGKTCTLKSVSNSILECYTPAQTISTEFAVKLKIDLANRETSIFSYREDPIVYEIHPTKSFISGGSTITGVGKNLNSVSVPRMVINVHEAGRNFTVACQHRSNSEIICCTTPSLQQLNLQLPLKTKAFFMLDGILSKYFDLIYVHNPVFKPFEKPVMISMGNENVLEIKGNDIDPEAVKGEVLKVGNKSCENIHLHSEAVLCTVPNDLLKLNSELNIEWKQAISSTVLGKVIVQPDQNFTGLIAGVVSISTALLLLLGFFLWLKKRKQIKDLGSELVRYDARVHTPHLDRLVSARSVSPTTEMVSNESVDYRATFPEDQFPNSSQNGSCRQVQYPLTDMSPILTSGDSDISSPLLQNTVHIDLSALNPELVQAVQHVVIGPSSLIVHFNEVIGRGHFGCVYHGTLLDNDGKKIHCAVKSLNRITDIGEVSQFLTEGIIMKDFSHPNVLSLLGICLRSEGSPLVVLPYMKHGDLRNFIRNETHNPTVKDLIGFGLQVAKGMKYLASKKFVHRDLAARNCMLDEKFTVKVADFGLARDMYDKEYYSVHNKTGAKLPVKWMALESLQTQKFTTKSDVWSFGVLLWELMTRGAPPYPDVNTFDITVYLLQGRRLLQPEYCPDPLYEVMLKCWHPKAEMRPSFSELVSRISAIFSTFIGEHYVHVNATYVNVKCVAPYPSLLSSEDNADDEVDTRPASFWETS
row,IC50,Compound
1,< 100 nM,"CCOc1cnc(-c2cccc(Cc3nn(-c4ccc(C#N)cc4)ccc3=O)c2)nc1 [Example 137, 4-{3-[3-(5-ethoxypyrimidin-2-yl)benzyl]-4-oxopyridazin-1(4H)-yl}benzonitrile]"
2,< 100 nM,"O=C(Nc1cccc(Cc2nn(-c3cc(F)c(F)c(F)c3)ccc2=O)c1)OCCn1ccnc1 [Example 547, 2-(1H-imidazol-1-yl)ethyl (3-{[4-oxo-1-(3,4,5-trifluorophenyl)-1,4-dihydropyridazin-3-yl]methyl}phenyl)carbamate]"
3,< 100 nM,"Cn1cc(-n2ccc(=O)c(Cc3cccc(-c4ncc(N5CCS(=O)(=O)CC5)cn4)c3)n2)cn1 [Example 448, 3-{3-[5-(1,1-dioxidothio-morpholin-4-yl]pyrimidin-2-yl]benzyl}-1-(1-methyl-1H-pyrazol-4-yl)pyridazin-4(1H)-one]"
4,< 100 nM,"CCn1cc(-n2ccc(=O)c(C(C)c3cccc(-c4ncc(-c5cnn(C)c5)cn4)c3)n2)cn1 (single isomer, unassigned) [Example 234, 1-(1-ethyl-1H-pyrazol-4-yl)-3-[(1S or R)-1-{3-[5-(1-methyl-1H-pyrazol-4-yl)pyrimidin-2-yl]phenyl}ethyl]pyridazin-4(1H)-one]"
5,< 100 nM,"CCn1cc(-n2ccc(=O)c(Cc3cccc(-c4ncc(OCC5(C)COC5)cn4)c3)n2)cn1 [Example 316, 1-(1-ethyl-1H-pyrazol-4-yl)-3-(3-{5-[(3-methyloxetan-3-yl)methoxy]pyrimidin-2-yl}benzyl)pyridazin-4(1H)-one]"
6,< 100 nM,"O=C(Nc1cccc(Cc2nn(-c3cc(F)cc(F)c3)ccc2=O)c1)OCC1CCOCC1 [Example 606, tetrahydro-2H-pyran-4-ylmethyl (3-{[1-(3,5-difluorophenyl)-4-oxo-1,4-dihydropyridazin-3-yl]methyl}phenyl)carbamate]"
7,< 100 nM,"CC(C)(O)COc1cnc(-c2cccc(Cc3nn(-c4cc(F)cc(F)c4)ccc3=O)c2)nc1 [Example 363, 1-(3,5-difluorophenyl)-3-{3-[5-(2-hydroxy-2-methylpropoxy)pyrimidin-2-yl]benzyl}pyridazin-4(1H)-one]"
8,100 to 1000 nM,"CCOc1cnc(-c2cccc(Cc3nn(-c4cnn(C5CN(C)C5)c4)ccc3=O)c2)nc1 [Example 668, 3-[3-(5-Ethoxypyrimidin-2-yl)benzyl]-1-[1-(1-methylazetidin-3-yl)-1H-pyrazol-4-yl]pyridazin-4(1H)-one]"
9,< 100 nM,"CCOc1cnc(-c2cccc(Cc3nn(-c4cc(Cl)cc(C#N)c4)ccc3=O)c2)nc1 [Example 140, 3-chloro-5-{3-[3-(5-ethoxypyrimidin-2-yl)benzyl]-4-oxopyridazin-1(4H)-yl}benzonitrile]"
10,< 100 nM,"Cn1cc(-n2ccc(=O)c(Cc3cccc(-c4ncc(OCc5noc(C6CC6)n5)cn4)c3)n2)cn1 [Example 282, 3-(3-{5-[(5-cyclopropyl-1,2,4-oxadiazol-3-yl)methoxy]pyrimidin-2-yl}benzyl)-1-(1-methyl-1H-pyrazol-4-yl)pyridazin-4(1H)-one]"
11,100 to 1000 nM,"CC(C)Cc1nc(-c2cccc(Cc3nn(-c4cnn(C)c4)ccc3=O)c2)no1 [Example 742, 3-{3-[5-(2-methylpropyl)-1,2,4-oxadiazol-3-yl]benzyl}-1-(1-methyl-1H-pyrazol-4-yl)pyridazin-4(1H)-one]"
12,1000 to 3000 nM,"Cc1nnc(-c2cccc(Cc3nn(-c4cnn(C)c4)ccc3=O)c2)s1 [Example 75, 1-(1-methyl-1H-pyrazol-4-yl)-3-[3-(5-methyl-1,3,4-thiadiazol-2-yl)benzyl]pyridazin-4(1H)-one]"
13,< 100 nM,"COc1cnc(-c2cccc(Cc3nn(-c4cc(F)c(F)c(F)c4)ccc3=O)c2)nc1 [Example 9, 3-[3-(5-methoxypyrimidin-2-yl)benzyl]-1-(3,4,5-trifluorophenyl)pyridazin-4(1H)-one]"
14,< 100 nM,"Cn1cc(-n2ccc(=O)c(Cc3cccc(-c4ncc(N5CCC6CCCCC6C5)cn4)c3)n2)cn1 (mixture of isomers) [Example 443, 1-(1-methyl-1H-pyrazol-4-yl)-3-{3-[5-(octahydroiso-quinolin-2(1H)-yl)pyrimidin-2-yl]benzyl}pyridazin-4(1H)-one]"
15,< 100 nM,"Cn1cc(-n2ccc(=O)c(Cc3cccc(NC(=O)OCCO)c3)n2)cn1 [Example 630, 2-Hydroxyethyl(3-{[1-(1-methyl-1H-pyrazol-4-yl)-4-oxo-1,4-dihydropyridazin-3-yl]methyl}phenyl)carbamate]"
16,< 100 nM,"COCCOC(=O)Nc1cccc(Cc2nn(-c3cc(F)c(F)c(F)c3)ccc2=O)c1 [Example 503, 2-methoxyethyl (3-{[4-oxo-1-(3,4,5-trifluorophenyl)-1,4-dihydropyridazin-3-yl]methyl}phenyl)carbamate]"
17,100 to 1000 nM,"O=c1ccn(-c2cn[nH]c2)nc1Cc1cccc(-c2ncc(O)cn2)c1 [Example 194, 3-[3-(5-Hydroxypyrimidin-2-yl)benzyl]-1-(1H-pyrazol-4-yl)pyridazin-4(1H)-one]"
18,< 100 nM,"O=C(Nc1cccc(Cc2nn(-c3cc(F)c(F)c(F)c3)ccc2=O)c1)OCC1CCCC1 [Example 556, cyclopentylmethyl (3-{[4-oxo-1-(3,4,5-trifluorophenyl)-1,4-dihydropyridazin-3-yl]methyl}phenyl)carbamate]"
19,< 100 nM,"CCCOC(=O)Nc1cccc(Cc2nn(-c3cc(F)c(Br)c(F)c3)ccc2=O)c1 [Example 16, propyl (3-{[1-(4-bromo-3,5-difluorophenyl)-4-oxo-1,4-dihydropyridazin-3-yl]methyl}phenyl)carbamate]"
20,< 100 nM,"Cn1cc(-n2ccc(=O)c(Cc3cccc(-c4ncc(C5=CCOC5)cn4)c3)n2)cn1 [Example 175, 3-{3-[5-(2,5-dihydrofuran-3-yl)pyrimidin-2-yl]benzyl}-1-(1-methyl-1H-pyrazol-4-yl)pyridazin-4(1H)-one]"
21,< 100 nM,"Cn1cc(-n2ccc(=O)c(Cc3cccc(-c4ncc(N5CCC(F)(F)C5)cn4)c3)n2)cn1 [Example 447, 3-{3-[5-(3,3-difluoropyrrolidin-1-yl)pyrimidin-2-yl]benzyl}-1-(1-methyl-1H-pyrazol-4-yl)pyridazin-4(1H)-one]"
22,< 100 nM,"O=c1ccn(-c2ccc(F)c(F)c2)nc1Cc1cccc(-c2ncc(OCC3CCOC3)cn2)c1 (single isomer, unassigned) [Example 352, 1-(3,4-difluorophenyl)-3-(3-{5-[(3S or R)-tetrahydrofuran-3-ylmethoxy]pyrimidin-2-yl}benzyl)pyridazin-4(1H)-one]"
23,< 100 nM,"Cn1cc(-n2ccc(=O)c(Cc3cccc(NC(=O)OCCN4CCS(=O)(=O)CC4)c3)n2)cn1 [Example 567, 2-(1,1-dioxidothio-morpholin-4-yl)ethyl (3-{[1-(1-methyl-1H-pyrazol-4-yl)-4-oxo-1,4-dihydropyridazin-3-yl]methyl}phenyl)carbamate]"
24,< 100 nM,"CCCn1cnc(-c2cccc(Cc3nn(-c4cnn(CC)c4)ccc3=O)c2)n1 [Example 87, 1-(1-ethyl-1H-pyrazol-4-yl)-3-[3-(1-propyl-1H-1,2,4-triazol-3-yl)benzyl]pyridazin-4(1H)-one]"
25,< 100 nM,"Cn1cc(-n2ccc(=O)c(Cc3cccc(-c4ncn(CCC5CCOC5)n4)c3)n2)cn1 (racemic) [Example 717, rac-1-(1-methyl-1H-pyrazol-4-yl)-3-(3-{1-[2-(tetrahydrofuran-3-yl)ethyl]-1H-1,2,4-triazol-3-yl}benzyl)pyridazin-4(1H)-one]"
